Measurements taken from patent US5872207A, “N-terminal-marked peptides immobilized on glass beads and method of preparation and method of use thereof” (Sanofi Pharmaceuticals, Inc., priority 1995, dated 1999).
Ends that are not written are not given here. * marks the point of attachment. Hcp = 3-(7-hydroxy-4-coumarinyl)propionyl, N-terminal fluorescent marker, O=C(CCc1cc(=O)oc2cc(O)ccc12)*; silane glass bead = not defined here; Ahx = NCCCCCC(=O)O

Experiments:
[1] = tested on: recombinant truncated collagenase; experiment: Bioassay: cleavage of immobilized peptide by recombinant truncated collagenase, fluorescence of supernatant; assay type: biochemical; conditions: for Mean Fluorescence Value ± Deviation: collagenase 10 nM, immobilized peptide 7.5 mg/mL, pH 7.5, 30-60 minutes, excitation 355 nm, emission 460 nm, mean of two measurements
Description: In a second process aspect the invention is a biochemical assay method which comprises reacting in aqueous medium a protease and a substrate peptide or peptide having an amino acid-like moiety in place of an amino acid moiety thereof immobilized on glass beads by a C-terminal linker-anchor and marked by an N-terminal fluorescent marker, separating the resulting glass beads from the supernatant liquid, measuring the fluorescence of the supernatant liquid, and determining from the measured fluorescence the extent of cleavage of the substrate by the protease. By an additional step the site of cleavage of the substrate by the protease can be determined by sequential amino acid analysis.
The protease used was recombinant truncated collagenase of molecular weight 19,000, which was stored at 4° C. as a 10 μM stock aqueous solution and diluted to 30 nM just prior to carrying out the assay with aqueous buffer solution containing tromethamine (TRIS, 50 mM), sodium chloride solution (0.2M), calcium chloride (10 mM), and octoxynol-9 to 10 (Triton X-100, 0.1% v/v), whose pH was adjusted to 7.5 with aqueous sodium hydroxide solution and which was filtered and stored at 4° C. A 2- to 3-mg sample of the immobilized peptide was weighed into a 1.5-mL polypropylene microfuge tube. Sufficient buffer solution was added with vortexing to wet the immobilized peptide and make the concentration thereof 7.5 mg/mL. Sufficient collagenase solution was added to make the concentration thereof 10 nM, the tube was vortexed mechanically for 30-60 minutes, and the reaction was stopped by centrifuging. Part of the supernatant solution (200 μL) was transferred to a well of a 96-well plate. Fluorescence was measured at an excitation wavelength of 355 nm and an emission wavelength of 460 nm. The following mean fluorescence values from two measurements were obtained from the immobilized peptides of Formulas IIIa-r.

[2] = tested on: mouse monoclonal antibody 3E7; conditions: Fodor et al., Science 251, 767-773 (1991); checkerboard on glass plate, epifluorescence microscope; cited from earlier work
[3] = target: monoclonal antibody against β-endorphin; conditions: Lam et al., Nature 354, 82-84 (1991); cited from earlier work

Substance | Mean Fluorescence Value ± Deviation [1] | other results
IIIa (Hcp-GPLAMF; not fully specified (C-terminus); also: C-terminus linked via NH(CH2)3Si(OR)2O anchor to glass bead) | 2042.5 ± 13 | 
IIIn (Hcp-GPLALF; not fully specified (C-terminus); also: C-terminus linked via NH(CH2)3Si(OR)2O anchor to glass bead) | 2964.5 ± 136 | 
IIIm (Hcp-GPAALF; not fully specified (C-terminus); also: C-terminus linked via NH(CH2)3Si(OR)2O anchor to glass bead) | 4283.0 ± 150 | 
IIIj (Hcp-GPLAMF-{Ahx-Ahx-Ahx-Ahx-Ahx-Ahx-Ahx-Ahx-Ahx-Ahx-silane glass bead}; not fully specified; reading uncertain; also: C-terminus linked via NH(CH2)3Si(OR)2O anchor to glass bead) | 3662.5 ± 23 | 
IIIc (Hcp-GPLAMF; not fully specified (C-terminus); also: C-terminus linked via NH(CH2)3Si(OR)2O anchor to glass bead) | 5733.5 ± 132 | 
IIIi (Hcp-GPLAMF-{Ahx-Ahx-Ahx-Ahx-Ahx-Ahx-Ahx-Ahx-Ahx-silane glass bead}; not fully specified; reading uncertain; also: C-terminus linked via NH(CH2)3Si(OR)2O anchor to glass bead) | 4238.5 ± 192 | 
IIIq (Hcp-AAALWAA; not fully specified (C-terminus); also: C-terminus linked via NH(CH2)3Si(OR)2O anchor to glass bead) | 379.5 ± 115 | 
IIIg (Hcp-GPLAMF; not fully specified (C-terminus); also: C-terminus linked via NH(CH2)3Si(OR)2O anchor to glass bead) | 5374.5 ± 53 | extent of cleavage ([1]; immobilized peptides having the linker (Acp)7 (Formulas IIIg and IIIk-r)): underwent cleavage to the greatest extent
IIIe (Hcp-GPLAMF; not fully specified (C-terminus); also: C-terminus linked via NH(CH2)3Si(OR)2O anchor to glass bead) | 5838.5 ± 170 | 
YGGFL |  | binding / detection by antibody 3E7 [2]: showed fluorescence; Ki [3]: 17.5 ± 3.2 nM
IIId (Hcp-GPLAMF; not fully specified (C-terminus); also: C-terminus linked via NH(CH2)3Si(OR)2O anchor to glass bead) | 6157.0 ± 72 | 
IIIh (Hcp-GPLAMF-{Ahx-Ahx-Ahx-Ahx-Ahx-Ahx-Ahx-Ahx-silane glass bead}; not fully specified; reading uncertain; also: C-terminus linked via NH(CH2)3Si(OR)2O anchor to glass bead) | 4723.5 ± 213 | 
YGGFQ |  | Ki [3]: 15 ± 1.7 nM

More lines, main results first:

Mean Fluorescence Value ± Deviation [1] | Substance | other results
7559.5 ± 2551 | IIIf (Hcp-GPLAMF; not fully specified (C-terminus); also: C-terminus linked via NH(CH2)3Si(OR)2O anchor to glass bead) | 
707.9 ± 266 | IIIl (Hcp-GALALF; not fully specified (C-terminus); also: C-terminus linked via NH(CH2)3Si(OR)2O anchor to glass bead) | 
3316.0 ± 57 | IIIk (Hcp-APLALF; not fully specified (C-terminus); also: C-terminus linked via NH(CH2)3Si(OR)2O anchor to glass bead) | 
1913.5 ± 63 | IIIp (Hcp-GPLALA; not fully specified (C-terminus); also: C-terminus linked via NH(CH2)3Si(OR)2O anchor to glass bead) | 
3824.5 ± 9 | IIIb (Hcp-GPLAMF; not fully specified (C-terminus); also: C-terminus linked via NH(CH2)3Si(OR)2O anchor to glass bead) | 
328.1 ± 0 | IIIo (Hcp-GPLAAF; not fully specified (C-terminus); also: C-terminus linked via NH(CH2)3Si(OR)2O anchor to glass bead) | 
